Assay results: patent US12503479B2, “Phospholipid-flavagline conjugates and methods of using the same for targeted cancer therapy” (Cellectar Biosciences, Inc., priority 2018, dated 2025)
pIC50: −log10 of the molar value. Like-named read-outs stand apart in the source and are kept apart here.

Tests used:
Intestinal Polyp = assay: Uptake in benign tissues: Intestinal Polyp; format: in vivo; settings: Endogenous Mouse, Adenoma (benign)
[1] = test system: Mammary alveolar hyperplasia; assay: Uptake in benign tissues: Mammary alveolar hyperplasia; format: in vivo; settings: Endogenous Mouse
[2] = test system: A549 (human lung adenocarcinoma) cells; assay: Cytotoxicity of parent compound versus PDC, tumor cells (Example 8); format: cell-based; settings: increasing concentrations; FIG. 3
Description: A549 (human lung adenocarcinoma) cells and normal human dermal fibroblasts (NHDF) were plated in 96 well dishes overnight. […] The difference between the cytotoxicity of the PDC molecule for tumor cells and that of the normal cells may have indicated a potential to improve the parent molecules therapeutic index.

[3] = test system: A375 (human malignant melanoma); assay: IC50 in cell lines: A375; format: cell-based; settings: A-375, read-out: IC50, A375
[4] = test system: A549 (human lung adenocarcinoma); assay: cells; format: cell-based; settings: Homo sapiens, A549, read-out: IC50, A549
[5] = test system: HCT 116 (human colon cancer); assay: IC50 in cell lines: HCT 116; format: cell-based; settings: HCT-116, read-out: IC50, HCT 116
[6] = test system: NHDF (normal human dermal fibroblasts); assay: cells; format: cell-based
[7] = format: in vivo, mice
Description: Listed in Table 5 are the doses administered to the mice, and how many mice were alive after treatment (“3/3” indicates 3 out of 3 mice were alive). […] MTD for CLR 1865 was between 5 and 10 mg/kg.

A375 and A549 cells = assay: Levels of FLV3 in cell lysate and growth media (LC/MS); format: cell-based, human
Description: FIG. 11 is a graph of concentration versus time for FLV3 detected in the cytosol (normalized to the cytosolic volume) in A375 (human melanoma) and A549 (human lung adenocarcinoma) cell lines.
The levels of FLV3 in cell lysate and growth media were measured using LC/MS. […] Levels of intracellular FLV3 appeared to plateau at 24 hours, while extracellular levels of FLV3 continued to increase.

Row | Compound | Tumor Uptake (Intestinal Polyp) | Tumor Uptake [1] | Cytotoxic potency to A549 cells versus NHDF cells (selectivity) [2] | pIC50 [3] | pIC50 [4] | pIC50 [5] | pIC50 ([6]; Homo sapiens, NHDF, read-out: IC50, NHDF) | Therapeutic Index (TI) ([6]; not defined, equals NHDF IC50 over lowest tumor line IC50) | Mice alive after treatment ([7]; Dose 0.1 mg/kg) | Mice alive after treatment ([7]; Dose 0.25 mg/kg) | Time at which levels of intracellular FLV3 plateau (A375 and A549 cells) [h] | Levels of FLV3 in the growth media (A375 and A549 cells; after 24 hours) | Levels of FLV3 in the cell lysate (A375 and A549 cells; after 24 hours, FIG. 11)
1 | C[N+](C)(C)CCOP(=O)([O-])OCCCCCCCCCCCCCCCCCCc1ccc(I)cc1 [CLR1404] | No | No |  |  |  |  |  |  |  |  |  |  | 
2 | COC(=O)[C@@H]1[C@H](O)[C@]2(O)c3c(OC)cc(OCCCCN)cc3O[C@]2(c2ccc(OC)cc2)[C@H]1c1ccccc1 [FLV3, reference compound] |  |  | near equal potency to the A549 cells as it did to the NHDF cells | 7.82 | 7.05 | 8.05 | 8.10 | 0.89 | 3/3 | 3/3 | 24 | Moderate levels | high levels
